# Test results reported in the supplement of paper PMC10307832.
# Compound: COC1=CC(c2cc3ccccc3[nH]2)=N/C1=C\c1[nH]c(C)cc1C [Obatoclax]
# Assay: relative viability (nuclei count vs DMSO), 5 days (fraction); higher = more cells survive
# Method in brief: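 Viability was read as treated-well nuclei divided by vehicle-well nuclei, using the median across plates. Lung cancer cell lines in 1536-well plates were kept overnight at 37 °C, pinned with five √10-spaced library-drug doses, and after 5 days were Hoechst-stained, imaged at 4× and counted in MetaXpress. Plates passed only with control CV below 25% and at least one doubling.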
cell line,measurement,setting,value
NCI-H650,relative viability,0.01 µM,1.02
same,relative viability,0.03162 µM,0.765
same,relative viability,0.3162 µM,0.742
same,relative viability,1 µM,0.445
